pIC50: −log10 of the molar value.
System: 171881-019-R-J1-PDC tumor spheroids, viability
Assay: Anticancer human tumor 171881-019-R-J1-PDC patient-derived invasive breast carcinoma cell line growth inhibition [GQUAD]
Conditions: spheroids with HUVEC and MSC; for pIC50: curve of first compound; for viability, T/C: stronger effect = lower value
Outline: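 Multi-cell-type spheroids of tumor cells with HUVEC and mesenchymal stem cells, treated with drug combinations. Concentrations descend in half-log steps from near clinical Cmax, or from 10 microM where Cmax is unknown; viability read-out.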

[1] = second compound 0.0316 µM, first compound 0.0316 µM
[2] = second compound 0.0316 µM, first compound 0.1 µM
[3] = second compound 0.0316 µM, first compound 0.316 µM
[4] = second compound 0.0316 µM, first compound 1 µM
[5] = second compound 0.0316 µM, first compound 3.16 µM
[6] = second compound 0.0316 µM, first compound 10 µM
[7] = second compound 0.1 µM, first compound 0.0316 µM
[8] = second compound 0.1 µM, first compound 0.1 µM
[9] = second compound 0.1 µM, first compound 0.316 µM
[10] = second compound 0.1 µM, first compound 1 µM
[11] = second compound 0.1 µM, first compound 3.16 µM
[12] = second compound 0.1 µM, first compound 10 µM
[13] = second compound 0.316 µM, first compound 0.0316 µM
[14] = second compound 0.316 µM, first compound 0.1 µM
[15] = second compound 0.316 µM, first compound 0.316 µM
[16] = second compound 0.316 µM, first compound 1 µM
[17] = second compound 0.316 µM, first compound 3.16 µM
[18] = second compound 0.316 µM, first compound 10 µM
[19] = second compound 1 µM, first compound 0.0316 µM
[20] = second compound 1 µM, first compound 0.1 µM
[21] = second compound 1 µM, first compound 0.316 µM
[22] = second compound 1 µM, first compound 1 µM
[23] = second compound 1 µM, first compound 3.16 µM
[24] = second compound 1 µM, first compound 10 µM
[25] = second compound 3.16 µM, first compound 0.0316 µM
[26] = second compound 3.16 µM, first compound 0.1 µM
[27] = second compound 3.16 µM, first compound 0.316 µM
[28] = second compound 3.16 µM, first compound 1 µM
[29] = second compound 3.16 µM, first compound 3.16 µM
[30] = second compound 3.16 µM, first compound 10 µM
[31] = second compound 10 µM, first compound 0.0316 µM
[32] = second compound 10 µM, first compound 0.1 µM
[33] = second compound 10 µM, first compound 0.316 µM
[34] = second compound 10 µM, first compound 1 µM
[35] = second compound 10 µM, first compound 3.16 µM
[36] = second compound 10 µM, first compound 10 µM
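Further: spheroids exposed to compounds for 7 days.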
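Wherever viability, T/C is given: 100% = DMSO vehicle control viability.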

Work on `C=CCn1c(=O)c2cnc(Nc3ccc(N4CCN(C)CC4)cc3)nc2n1-c1cccc(C(C)(C)O)n1` + CN(C)c1ccc(Nc2c3ccc(NC(=O)CCN4CCCC4)cc3nc3cc(NC(=O)CCN4CCCC4)ccc23)cc1 yielded a pIC50 (second compound 0.0316 µM) of 6.11, a pIC50 (second compound 0.1 µM) of 6.15 and a pIC50 (second compound 0.316 µM) greater than 7.50. For the same molecule, the pIC50 (second compound 1 µM) was greater than 7.50, the pIC50 (second compound 3.16 µM) was greater than 7.50 and the pIC50 (second compound 10 µM) was greater than 7.50. The viability, T/C [1] was 105%, the viability, T/C [2] was 86.5% and the viability, T/C [3] was 87.6%. The viability, T/C [4] was 40%, the viability, T/C [5] was 21.3% and the viability, T/C [6] was 23.7%. The viability, T/C [7] was 106%, the viability, T/C [8] was 99% and the viability, T/C [9] was 66.8%. The viability, T/C [10] was 45.5%, the viability, T/C [11] was 24.1% and the viability, T/C [12] was 27.5%. For the same molecule, the viability, T/C [13] was 39.8%, the viability, T/C [14] was 38.4% and the viability, T/C [15] was 36.4%. The viability, T/C [16] was 15.2%, the viability, T/C [17] was 16.5% and the viability, T/C [18] was 9.97%. The viability, T/C [19] was 3.15%, the viability, T/C [20] was 2.55% and the viability, T/C [21] was 3.78%. It also gave a viability, T/C [22] of 2.12%, a viability, T/C [23] of 1.52% and a viability, T/C [24] of 1.18%. The viability, T/C [25] was 0.41%, the viability, T/C [26] was 0.2% and the viability, T/C [27] was 0.36%. The viability, T/C [28] was 0.19%, the viability, T/C [29] was 0.51% and the viability, T/C [30] was 0.13%. For the same molecule, the viability, T/C [31] was 0.13%, the viability, T/C [32] was 0.12% and the viability, T/C [33] was 0.54%. The viability, T/C [34] was 0.29%, the viability, T/C [35] was 0.16% and the viability, T/C [36] was 0.14%.

`CCCS(=O)(=O)Nc1ccc(F)c(C(=O)c2c[nH]c3ncc(-c4ccc(Cl)cc4)cc23)c1F` + CN(C)c1ccc(Nc2c3ccc(NC(=O)CCN4CCCC4)cc3nc3cc(NC(=O)CCN4CCCC4)ccc23)cc1 was tested, and the pIC50 (second compound 0.0316 µM) was 5.01, the pIC50 (second compound 0.1 µM) was 5.02 and the pIC50 (second compound 0.316 µM) was 5.49. The pIC50 (second compound 1 µM) was greater than 7.50, the pIC50 (second compound 3.16 µM) was greater than 7.50 and the pIC50 (second compound 10 µM) was greater than 7.50. The viability, T/C [1] was 99.8%, the viability, T/C [2] was 108% and the viability, T/C [3] was 102%. It also gave a viability, T/C [4] of 116%, a viability, T/C [5] of 93.7% and a viability, T/C [6] of 49.2%. The viability, T/C [7] was 76.9%, the viability, T/C [8] was 100% and the viability, T/C [9] was 84.2%. The viability, T/C [10] was 104%, the viability, T/C [11] was 94.5% and the viability, T/C [12] was 47.9%. It also gave a viability, T/C [13] of 43.8%, a viability, T/C [14] of 53.4% and a viability, T/C [15] of 55.8%. The viability, T/C [16] was 44.1%, the viability, T/C [17] was 56.2% and the viability, T/C [18] was 25.8%. The viability, T/C [19] was 5.16%, the viability, T/C [20] was 3.85% and the viability, T/C [21] was 4.58%. The viability, T/C [22] was 3.58%, the viability, T/C [23] was 3.49% and the viability, T/C [24] was 3.08%. For the same molecule, the viability, T/C [25] was 0.35%, the viability, T/C [26] was 0.31% and the viability, T/C [27] was 0.72%. It also gave a viability, T/C [28] of 0.43%, a viability, T/C [29] of 0.5% and a viability, T/C [30] of 0.53%. For the same molecule, the viability, T/C [31] was 0.11%, the viability, T/C [32] was 0.23% and the viability, T/C [33] was 0.24%. The viability, T/C [34] was 0.32%, the viability, T/C [35] was 0.57% and the viability, T/C [36] was 0.3%.

From PubChem BioAssay AID2060498 (Molecular Pharmacology Branch, DTP, NCI, 2025)
